The text below walks through data of patent US20150038435A1, “N-TERMINALLY MODIFIED OLIGOPEPTIDES AND USES THEREOF” (Novo Nordisk A/S, priority 2012, published 2015).

Starred links: 1 amine or outer side, 2 acyl side, 3 side chain; linkers in the order of their positions; H or OH if unused. Non-standard residues stand in square brackets, D forms with d. Residues, ends and D or L forms follow the SMILES beside them. *: point of attachment. γGlu = O=C(O)[C@H](CCC(=O)[*:2])N[*:1]; C14 diacid = O=C(O)CCCCCCCCCCCCC(=O)*; Palmitoyl = CCCCCCCCCCCCCCCC(=O)*; Myristoyl = CCCCCCCCCCCCCC(=O)*

Data set [1] in a line: Hydrophobicity: retention time during reverse phase HPLC. The format is physicochemical. Particulars: Acquity CSH C18; pH 7.2 buffer/CH3CN gradient; 40° C. From the text:
The retention time (RT) during reverse phase HPLC was taken as a measure of hydrophobicity of an N-terminally modified peptide or oligopeptide of the invention, where the connection is: The longer the RT, the more hydrophobic N-terminally modified peptide or oligopeptide. The following running conditions were applied during HPLC analysis:
Buffer B: 70% (v/v) aq. CH3CN

The test system of the next data set is Trypsin. In words: Inhibition of enzymatic degradation of a model GLP-1 (FRET substrate) by trypsin. In kind it is biochemical. The note with it: for EC50: read-out: EC50 Trypsin (0.001 mg/ml), 0.001 mg/ml trypsin, 37° C. The essentials:
(§1)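 MCA/DNP-labelled model GLP-1 FRET substrate (10 μl of 100 μM stock) in Dulbecco's PBS at 37° C with varying acylated peptide; fluorescence (ex 320/em 405 nm) read every minute for ≥30 min. Initial slopes from linear regression, duplicates averaged; EC50 by sigmoidal logistic fit of slope vs concentration.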

In the next data set the test system is GI juice. In words: Inhibition of GI juice degradation of insulin analogue and GLP-1 analogue. The format is biochemical. Particulars: rat GI juice. The protocol: 96 well plates were coated by incubating with 0.4% Bovine serum albumin (BSA) solution for minimum of 60 min. […] 1% TFA), 30 μl of a substrate (100 μM insulin analogue or GLP-1 analogue in buffer) and 30 μl of N-terminally acylated peptide or oligopeptide of the invention (10 mM) were added. The plates were pre-incubated (before adding GI juice) for 60 min at 37° C. After addition of 30 μl of GI juice (10-times diluted in buffer), the plates were incubated for 60 min/37° C. on shaker. […] 1% TFA and spun down in plates (4500 rpm for 10 min). Samples were diluted 5 times with the buffer prior to LC-MS analysis. Standard samples (0.1, 0.5, 1.0, 5.0, 10.0 μM) were prepared and treated as the samples. Standard curve was analysed both at the beginning and the end of the sequence. Two replicates of each tested conditions were included. Ion suppression was assessed by analyzing a standard at 1 μM and at 10 μM with 1 mM inhibitor present. Intact insulin or GLP-1 analoues were determined at each sample. The results were plotted against the incubation time. […] The half-lives were expressed relative to the half-live of the insulin or GLP-1 analogue without inhibitor present by dividing the half-lives obtained in the presence of inhibitor with those obtained in the absence of inhibitors. GI juice was prepared from male Sprague Dawley rats (200-250 g) by excising approximately 20 cm piece of mid jejunum and rinsing the inside with 2.5 ml 0.9% sodium chloride solution. The sodium chloride solution was collected in a centrifuge tube, pooled from all rats (20) and centrifuged at 4500 rpm./10 min/4° C. The supernatant was aliquoted in tubes and stored at −80° C.
A14E, B25H, B29K(N(eps)Octadecanedioyl-γGlu-OEG-OEG), desB30 human insulin and N-epsilon26-[2-(2-{2-[2-(2-{2-[(S)-4-Carboxy-4-(17-carboxyheptadecanoylamino)-butyrylamino]ethoxy}ethoxy)acetylamino]ethoxy}ethoxy)acetyl][Aib8,Arg34]GLP-1-(7-37) were used as standards in this assay.
For experiments repeated more than two times, standard deviation is given

A further data set relates to Chymotrypsin. Put plainly: Inhibition of enzymatic degradation of a model GLP-1 (FRET substrate) by chymotrypsin. The note with it: for EC50: read-out: EC50 Chymotrypsin (0.001 mg/ml), 0.001 mg/ml chymotrypsin, 37° C., ± standard error if at least 3 measurements. The format is biochemical. The essentials:
as §1

Data set [2] in a line: Stability of N-terminally acylated peptides or oligopeptides in GI juice. The format is in vitro ADME. The note with it: GI juice (jejunum extract); degradation of the compound itself in jejunum extract from rat; read-out: t 1/2 in rat GI juice. On the procedure:
96 well plates were coated by incubating with 0.4% Bovine serum albumin (BSA) solution for minimum of 60 min. To each well, 210 μl of buffer (Hank's balanced salt solution-4-(2-hydroxyethyl)-1-piperazineethanesulfonic acid (HBSS-HEPES) buffer) with 0.005% Tween 20 and 0.001% BSA, pH 6.5 precipitated with 3 vol. cold 96% ethanol (EtOH) w. 1% TFA), 30 μl of a substrate (100 μM insulin analogue or GLP-1 analogue in buffer) and 30 μl of N-terminally acylated peptide or oligopeptide of the invention (10 mM) were added. The plates were pre-incubated (before adding GI juice) for 60 min at 37° C. After addition of 30 μl of GI juice (10-times diluted in buffer), the plates were incubated for 60 min/37° C. on shaker. Samples (40 μl) were taken at 0, 5, 10, 20, 30 and 60 min, stopped with 3 vol. cold 96% EtOH w. 1% TFA and spun down in plates (4500 rpm for 10 min). Samples were diluted 5 times with the buffer prior to LC-MS analysis. Standard samples (0.1, 0.5, 1.0, 5.0, 10.0 μM) were prepared and treated as the samples. Standard curve was analysed both at the beginning and the end of the sequence. Two replicates of each tested conditions were included. Ion suppression was assessed by analyzing a standard at 1 μM and at 10 μM with 1 mM inhibitor present. Intact insulin or GLP-1 analoues were determined at each sample. The results were plotted against the incubation time. Half-lives of the insulin or GLP-1 analogues were determined by nonlinear regression of the results using, for example Graph Pad Prism. The half-lives were expressed relative to the half-live of the insulin or GLP-1 analogue without inhibitor present by dividing the half-lives obtained in the presence of inhibitor with those obtained in the absence of inhibitors. GI juice was prepared from male Sprague Dawley rats (200-250 g) by excising approximately 20 cm piece of mid jejunum and rinsing the inside with 2.5 ml 0.9% sodium chloride solution. The sodium chloride solution was collected in a centrifuge tube, pooled from all rats (20) and centrifuged at 4500 rpm./10 min/4° C. The supernatant was aliquoted in tubes and stored at −80° C.
Degradation of the N-terminally fatty acid modified peptide or oligopeptide of the invention themselves in jejunum extract from rat (GI juice) and determination of half-lives, was measured as described above (example 200).

Setting [3] is: compound 0.1 mM, buffer containing 8% DMSO.

For `CCCCCCCCCCCCCC(=O)N[C@@H](CCC(=O)O)C(=O)N[C@@H](C)C(=O)N[C@@H](C)C(=O)N1CCC[C@H]1C(=O)N[C@@H](Cc1ccccc1)C(=O)O` [Example 13, N-tetradecanoyl-Glu-Ala-Ala-Pro-Phe-OH] (Myristoyl-EAAPF-OH), the “RT (retention time during reverse phase HPLC as a measure of hydrophobicity)” value (shortened to “RT”) in data set [1] stood at 5.19 min. The “Slope of the initial increase in fluorescence obtained during incubation with 0.001 mg/ml Trypsin” value in the data set with Trypsin (compound 1 mM) amounted to 0.12. In addition, the “Half Life fold increase (over solution w/o N-terminally acylated (oligo)peptide)” value in the data set on GI juice (compound 1 mM) worked out at 3.4. Moreover, the “Half Life of insulin analogue” value in the data set on GI juice (compound 1 mM, 37° C.) was 7.2 min. In the data set on Chymotrypsin (compound 1 mM), the “Slope of the initial increase in fluorescence obtained during incubation with 0.001 mg/ml Chymotrypsin” value turned out to be 0.00.
Turning to `CCCCCCCCCCCCCCCC(=O)N[C@@H](CCC(=O)N[C@@H](C)C(=O)N[C@@H](C)C(=O)N1CCC[C@H]1C(=O)N[C@@H](Cc1ccccc1)C(=O)O)C(=O)O` [Example 135, N-hexadecanoyl-γGlu-Ala-Ala-Pro-Phe-OH] ({Palmitoyl-γGlu}-AAPF-OH), in data set [1], the “RT” value is 7.5 min. The EC50 with Trypsin worked out at 40 µM. Further, the “Half Life fold increase (over solution w/o N-terminally acylated (oligo)peptide)” value with GI juice (compound 1 mM) stood at 3.8. In the data set with GI juice (compound 1 mM, 37° C.), the “Half Life of GLP-1 analogue” value is 0.9 min and the “Half Life of insulin analogue” value turned out to be 9.2 min. The EC50 with Chymotrypsin was determined as 45 µM.
With `CCCCCCCCCCCCCC(=O)N[C@@H](CCC(=O)N[C@H](C)C(=O)N1CCC[C@@H]1C(=O)N[C@H](Cc1ccccc1)C(=O)O)C(=O)O` [Example 148, N-tetradecanoyl-γGlu-DAla-DPro-DPhe-OH] ({Myristoyl-γGlu}-[dA]-[dP]-[dF]-OH), the half-life in data set [2] is above 1000 min. Further, the EC50 in the data set with Chymotrypsin was 322 µM.
Consider `CCCCCCCCCCCCCC(=O)N[C@@H](Cc1c[nH]cn1)C(=O)N[C@@H](C)C(=O)N[C@@H](CCCNC(=N)N)C(=O)N1CCC[C@H]1C(=O)N[C@@H](Cc1ccccc1)C(=O)O` [Example 178, N-tetradecanoyl-His-Ala-Arg-Pro-Phe-OH] (Myristoyl-HARPF-OH), for which the half-life in data set [2] was determined as 4.5 min. Moreover, the results for the EC50 with Trypsin and in the data set on Chymotrypsin were 102 µM and 32 µM, respectively.
Turning to “N-dodecanoyl-γGlu-OEG-Pro-Arg-OH [Example 127]”, in data set [1], the “RT” value was 3.67 min. Also, the “Slope of the initial increase in fluorescence obtained during incubation with 0.001 mg/ml Trypsin” value in the data set with Trypsin (compound 1 mM) was 0.72. Also, the “Slope of the initial increase in fluorescence obtained during incubation with 0.001 mg/ml Chymotrypsin” value with Chymotrypsin (compound 1 mM) is given as 0.62.
With “N-dodecanoyl-γGlu-Pro-Tyr-OH [Example 100]”, the “RT” value in data set [1] was determined as 3.9 min. Besides, the “Slope of the initial increase in fluorescence obtained during incubation with 0.001 mg/ml Trypsin” value with Trypsin (setting [3]) was determined as 1.69. For the same molecule, in the data set on Chymotrypsin (setting [3]), the “Slope of the initial increase in fluorescence obtained during incubation with 0.001 mg/ml Chymotrypsin” value is 1.75.
The matching figures for “N-dodecanoyl-γGlu-γGlu-Ala-Ala-Pro-Tyr-OH [Example 99]”: 3.41 min, 1.52 and 0.35.
On to “N-hexadecanoyl-γGlu-OEG-Ala-Ala-Pro-Phe-OH [Example 134]”, for which the “RT” value in data set [1] was 7 min. Also, the EC50 in the data set with Trypsin worked out at 46 µM; in the data set on Chymotrypsin, 48 µM.
For “N-tetradecandioyl-Ala-Ala-Pro-Phe-OH ({C14 diacid}-AAPF-OH) [Example 16]”, the “RT” value in data set [1] came to 3.11 min. Besides, the “Slope of the initial increase in fluorescence obtained during incubation with 0.001 mg/ml Trypsin” value in the data set with Trypsin (compound 1 mM) stood at 3.23. Moreover, the “Slope of the initial increase in fluorescence obtained during incubation with 0.001 mg/ml Chymotrypsin” value in the data set on Chymotrypsin (compound 1 mM) is reported as 0.14.
As for “N-tetradecanoyl-Ala-Ala-Pro-DPhe-OH [Example 5]”, the “RT” value in data set [1] worked out at 9.74 min. Also, in the data set on Trypsin (compound 1 mM), the “Slope of the initial increase in fluorescence obtained during incubation with 0.001 mg/ml Trypsin” value stood at 0.35. The “Slope of the initial increase in fluorescence obtained during incubation with 0.001 mg/ml Chymotrypsin” value in the data set with Chymotrypsin (compound 1 mM) turned out to be 0.09. The EC50 in the data set with Chymotrypsin worked out at 105 µM.
Take “N-tetradecanoyl-Ala-Ala-Pro-Phe-OH [Example 3]”: the “RT” value in data set [1] came to 9.74 min. In the data set with Trypsin (compound 1 mM), the “Slope of the initial increase in fluorescence obtained during incubation with 0.001 mg/ml Trypsin” value came out at 0.37. Besides, the EC50 in the data set with Trypsin came out at 74 µM; in the data set on Chymotrypsin it was 57 ± 2 µM. Further, the “Slope of the initial increase in fluorescence obtained during incubation with 0.001 mg/ml Chymotrypsin” value with Chymotrypsin (compound 1 mM) is recorded as 0.01.
In the case of “N-tetradecanoyl-βAla-Ala-Pro-Phe-OH [Example 9]”, the “RT” value in data set [1] came out at 8.73 min. Besides, the “Slope of the initial increase in fluorescence obtained during incubation with 0.001 mg/ml Trypsin” value with Trypsin (compound 1 mM) was 0.21. Moreover, in the data set with Chymotrypsin (compound 1 mM), the “Slope of the initial increase in fluorescence obtained during incubation with 0.001 mg/ml Chymotrypsin” value worked out at 0.01.
Consider “N-tetradecanoyl-βAla-βAla-Pro-Phe-OH [Example 136]”, for which the “RT” value in data set [1] turned out to be 8.73 min. Moreover, the EC50 in the data set with Trypsin was 13 µM; in the data set on Chymotrypsin it was 106 µM.
The corresponding values for “N-tetradecanoyl-βAla-βAla-βAla-Pro-Phe-OH [Example 138]” are 8.16 min, 39 µM and 154 µM.
“N-tetradecanoyl-γGlu-OEG-Ala-Ala-Pro-Phe-OH [Example 126]”: the “RT” value in data set [1] was 5.02 min. For the same molecule, the “Slope of the initial increase in fluorescence obtained during incubation with 0.001 mg/ml Trypsin” value with Trypsin (compound 1 mM) came to 0.30. The EC50 in the data set on Trypsin was above 500 µM; with Chymotrypsin, 102 µM. Further, the “Slope of the initial increase in fluorescence obtained during incubation with 0.001 mg/ml Chymotrypsin” value with Chymotrypsin (compound 1 mM) worked out at 0.05.

B1: Soya bean trypsin inhibitor: soya bean trypsin inhibitor (Kunitz type, SBTI), protease inhibitor described in the public domain (protein, UniProt P01070 25-205, looked up)
Trypsin inhibitor A: DFVLDNEGNPLENGGTYYILSDITAFGGIRAAPTGNERCPLTVVQSRNELDKGIGTIISSPYRIRFIAEGHPLSLKFDSFAVIMLCVGIPTEWSVVEDLPEGPAVKIGENKDAMDGWFRLERVSDDEFNNYKLVFCPQQAEDDKCGDIGISIDHDDGTRRLVVSKNKPLVVQFQKLDKESL
Turning to B1, in the data set on GI juice (inhibitor 0.1%, ± standard deviation), the “Half Life of insulin analogue” value turned out to be 505.3 ± 309.2 min.
